What all share (format): biochemical
One experiment addresses T1, MERTK (Homo sapiens, UniProt Q12866).
T1 sequence (Q12866 21-999): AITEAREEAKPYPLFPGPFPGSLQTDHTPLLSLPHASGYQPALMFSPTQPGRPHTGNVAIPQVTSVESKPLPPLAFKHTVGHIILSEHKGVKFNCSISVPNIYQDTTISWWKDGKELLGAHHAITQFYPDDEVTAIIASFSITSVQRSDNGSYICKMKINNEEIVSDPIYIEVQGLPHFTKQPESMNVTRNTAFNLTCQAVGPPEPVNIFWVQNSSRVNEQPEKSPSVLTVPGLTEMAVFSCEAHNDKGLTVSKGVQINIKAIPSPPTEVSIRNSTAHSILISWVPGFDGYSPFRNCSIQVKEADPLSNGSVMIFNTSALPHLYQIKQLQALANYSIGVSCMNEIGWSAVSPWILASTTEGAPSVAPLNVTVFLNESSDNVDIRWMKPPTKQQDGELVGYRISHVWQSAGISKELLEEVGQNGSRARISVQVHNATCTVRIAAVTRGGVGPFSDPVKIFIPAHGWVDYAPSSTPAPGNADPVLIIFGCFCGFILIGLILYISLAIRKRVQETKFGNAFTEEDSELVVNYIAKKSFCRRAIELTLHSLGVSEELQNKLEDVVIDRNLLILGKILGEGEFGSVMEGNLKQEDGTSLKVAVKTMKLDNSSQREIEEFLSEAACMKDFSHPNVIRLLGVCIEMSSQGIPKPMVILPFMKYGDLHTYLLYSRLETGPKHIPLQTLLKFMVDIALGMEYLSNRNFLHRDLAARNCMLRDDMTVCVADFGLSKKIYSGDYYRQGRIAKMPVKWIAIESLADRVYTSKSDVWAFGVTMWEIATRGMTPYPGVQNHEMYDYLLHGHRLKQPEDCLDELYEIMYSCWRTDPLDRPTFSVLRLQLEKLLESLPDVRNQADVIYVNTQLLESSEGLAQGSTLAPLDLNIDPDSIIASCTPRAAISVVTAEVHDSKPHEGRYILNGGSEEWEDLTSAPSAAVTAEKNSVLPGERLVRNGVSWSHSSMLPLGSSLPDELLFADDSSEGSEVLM
Nature of the experiment: MERTK enzymatic assay (Kinase Glo). The conditions noted are these: purified kinase, ATP 12 μM, read-out: MER Enzymatic Inhibition (%). The protocol:
(§1) A purified kinase (AXL or MERTK) was incubated with a compound or DMSO (control) for 15 minutes in an assay buffer (25 mM Tri s pH 7.4, 10 mM MgCl2, 4 mM MnCl2, 2 mM DTT, 0.0100 BSA, 0.02% TritonX-100, 0.0100 Brij35 and 0.5 mM Na3VO4 for MERTK; and 40 mM Tri s pH 7.4, 20 mM MgCl2, 2 mM DTT, 0.01% BSA and 0.5 mM Na3VO4 for AXL). […] The mixture was incubated for 3 hours at 30° C. The luminescence was calculated to determine the kinase activity using a Kinase Glo assay kit for MERTK and an ADP-Glo Kinase Assay kit for AXL following the manufacture's instructions (Promega Corp., Madison, Wisconsin).
(§2) A study was conducted to compare exemplary compounds of formula (I) in inhibiting TAM activities, including MERTK, AXL, and TYRO3. An enzymatic assay was used in the study. A purified Kinase (i.e., MERTK, AXL, or TYRO3) was incubated with a compound or DMSO (control) for around 15 minutes in an assay buffer (25 mM Tris pH 7.4, 10 mM MgCl2, 4 mM MnCl2, 2 mM DTT, 0.01% BSA, 0.02% TritonX-100, 0.01% Brij35 and 0.5 mM Na3VO4 for MERTK; 40 mM Tris pH 7.4, 20 mM MgCl2, 2 mM DTT, 0.01% BSA and 0.5 mM Na3VO4 for AXL; and 25 mM Tris pH 7.4, 10 mM MgCl2, 4 mM MnCl2, 2 mM DTT, 0.01% BSA and 0.5 mM Na3VO4 for TYRO3). […] The mixture was incubated for 3 hours at 30° C. The luminescence was calculated to determine the kinase activity using a Kinase Glo assay kit for MERTK and an ADP-Glo Kinase assay kit for AXL and TYRO3 following the manufacture's instructions (Promega). Inhibition rates and half maximal inhibitory concentration (IC50) values were calculated. High percentage inhibition rates and low IC50 values are indicatives of high potency of the test compound.
In general terms: Kinase-Glo reads ATP consumption through a luciferase reaction.

For the next experiment, the system named is MER/AXL. Nature of the experiment: Dual MER/AXL inhibition (enzymatic). The following applies: class for both MER and AXL. The protocol:
as §1

A further experiment deals with T2, AXL (Homo sapiens, UniProt P30530).
T2 sequence (P30530 26-894): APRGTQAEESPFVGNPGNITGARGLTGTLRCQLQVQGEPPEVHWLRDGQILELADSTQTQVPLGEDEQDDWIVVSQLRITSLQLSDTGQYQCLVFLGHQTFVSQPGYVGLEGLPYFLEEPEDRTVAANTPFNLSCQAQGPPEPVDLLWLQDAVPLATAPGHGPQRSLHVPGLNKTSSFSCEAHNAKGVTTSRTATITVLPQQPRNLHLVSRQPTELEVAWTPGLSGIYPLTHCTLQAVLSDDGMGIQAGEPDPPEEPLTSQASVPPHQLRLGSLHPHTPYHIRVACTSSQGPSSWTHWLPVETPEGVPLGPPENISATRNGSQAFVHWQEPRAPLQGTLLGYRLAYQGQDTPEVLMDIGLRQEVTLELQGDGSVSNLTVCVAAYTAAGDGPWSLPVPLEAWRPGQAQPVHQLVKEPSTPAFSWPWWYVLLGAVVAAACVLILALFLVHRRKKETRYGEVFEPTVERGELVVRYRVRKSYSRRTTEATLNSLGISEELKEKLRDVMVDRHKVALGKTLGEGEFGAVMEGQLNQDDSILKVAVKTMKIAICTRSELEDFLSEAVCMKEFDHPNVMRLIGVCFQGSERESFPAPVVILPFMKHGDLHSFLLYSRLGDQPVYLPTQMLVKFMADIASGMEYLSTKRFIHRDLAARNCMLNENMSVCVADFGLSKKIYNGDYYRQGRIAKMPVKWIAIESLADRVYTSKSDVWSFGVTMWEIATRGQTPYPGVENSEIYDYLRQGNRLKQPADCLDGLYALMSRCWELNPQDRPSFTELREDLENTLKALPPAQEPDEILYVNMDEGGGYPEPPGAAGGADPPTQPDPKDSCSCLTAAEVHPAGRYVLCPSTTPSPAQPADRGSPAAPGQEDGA
Nature of the experiment: AXL enzymatic assay (ADP-Glo). The following applies: purified kinase, ATP 50 μM, read-out: AXL Enzymatic Inhibition (%). How it is done: as §1, §2
On the technique in general: ADP-Glo turns the ADP formed in a reaction into a luminescent signal.

As for `CN1CCN(c2ccc(-c3c(-c4cnn(C)c4)oc4ncnc(Oc5ccc(NC(=O)c6cccn(-c7ccc(F)cc7)c6=O)cc5)c34)cc2)CC1` [Compound 34], the IC50 on MERTK, in the experiment with MER/AXL and on AXL was under 20 nM in each case.

With `CC(=O)Nc1cccc(-c2n[nH]c3ncnc(Oc4ccc(NC(=O)c5cccn(-c6ccc(F)cc6)c5=O)cc4)c23)c1` [Compound 35], the results for the IC50 at MERTK, with MER/AXL and at AXL were 100 to 50000 nM, 100 to 50000 nM and 20 to 100 nM, respectively.

In the case of `Nc1cccc(-c2n[nH]c3ncnc(Oc4ccc(NC(=O)c5cccn(-c6ccc(F)cc6)c5=O)cc4)c23)c1` [Compound 36], the IC50 lay within 100 to 50000 nM on MERTK, 100 to 50000 nM with MER/AXL and 20 to 100 nM at AXL.

For the molecule `CN1CCN(c2cccc(-c3c(-c4cnn(C)c4)oc4ncnc(Oc5ccc(NC(=O)c6cccn(-c7ccc(F)cc7)c6=O)cc5)c34)c2)CC1` [Compound 38], the IC50 on MERTK is 20 to 100 nM; in the experiment with MER/AXL, 20 to 100 nM; at AXL, under 20 nM.

In the case of `CC(=O)Nc1cccc(-c2c(-c3cn[nH]c3)oc3ncnc(Oc4ccc(NC(=O)c5cccn(-c6ccc(F)cc6)c5=O)cc4)c23)c1` [Compound 40], the results for the IC50 at MERTK, in the experiment with MER/AXL and at AXL were 20 to 100 nM, 20 to 100 nM and under 20 nM, respectively.

With `O=C(Nc1ccc(Oc2ncnc3ccsc23)cc1)c1cccn(-c2ccc(F)cc2)c1=O` [Compound 41], the IC50 at MERTK lay in the range of 100 to 50000 nM; in the experiment with MER/AXL, 100 to 50000 nM; on AXL it was 20 to 100 nM.

Consider `O=C(Nc1ccc(Oc2ncnc3oc(-c4ccccc4)cc23)cc1)c1cccn(-c2ccc(F)cc2)c1=O` [Compound 42], for which the IC50 on MERTK, with MER/AXL and on AXL was 100 to 50000 nM each time.

Turning to `CC(=O)Nc1cccc(-c2coc3ncnc(Oc4ccc(NC(=O)c5cccn(-c6ccc(F)cc6)c5=O)cc4)c23)c1` [Compound 47], the IC50 at MERTK was 100 to 50000 nM; in the experiment with MER/AXL it was 100 to 50000 nM; at AXL it was 20 to 100 nM.

For `CC(=O)Nc1cccc(-c2c(C)oc3ncnc(Oc4ccc(NC(=O)c5cccn(-c6ccc(F)cc6)c5=O)cc4)c23)c1` [Compound 50], the IC50 on MERTK lay within 100 to 50000 nM; with MER/AXL, 100 to 50000 nM; at AXL, 20 to 100 nM.

Consider `Cn1cc(-c2oc3ncnc(Oc4ccc(NC(=O)c5cccn(-c6ccc(F)cc6)c5=O)nc4)c3c2-c2cccc(N)c2)cn1` [Compound 52], for which the values for the IC50 at MERTK, with MER/AXL and on AXL were 20 to 100 nM, 20 to 100 nM and under 20 nM, respectively.

As for `CC(=O)Nc1cccc(-c2c(-c3cnn(C)c3)oc3ncnc(Oc4ccc(NC(=O)c5cccn(-c6ccc(F)cc6)c5=O)nc4)c23)c1` [Compound 53], the IC50 at MERTK, with MER/AXL and at AXL was 20 to 100 nM throughout.

For the molecule `Cn1cc(-c2oc3ncnc(Oc4ccc(NC(=O)c5cccn(-c6ccccc6)c5=O)cc4)c3c2-c2cccc(N)c2)cn1` [Compound 54], the IC50 at MERTK is 20 to 100 nM; in the experiment on MER/AXL, 20 to 100 nM; at AXL it was under 20 nM.

For the molecule `Cn1cc(-c2oc3ncnc(Oc4ccc(NC(=O)c5cccn(-c6cccc(F)c6)c5=O)cc4)c3c2-c2cccc(N)c2)cn1` [Compound 55], the IC50 is 20 to 100 nM on MERTK, 20 to 100 nM with MER/AXL and under 20 nM on AXL.

On to `CC(=O)Nc1cccc(-c2c(-c3cnn(C)c3)oc3ncnc(Oc4ccc(NC(=O)c5cccn(-c6ccccc6)c5=O)cc4)c23)c1` [Compound 56], for which the IC50 was 20 to 100 nM at MERTK, 20 to 100 nM in the experiment on MER/AXL and under 20 nM on AXL.

As to `CC(=O)Nc1cccc(-c2c(-c3cnn(C)c3)oc3ncnc(Oc4ccc(NC(=O)c5cccn(-c6cccc(F)c6)c5=O)cc4)c23)c1` [Compound 57], the IC50 on MERTK was 100 to 50000 nM; with MER/AXL, 100 to 50000 nM; at AXL, under 20 nM.

For `CC(=O)Nc1cccc(-c2c(-c3ccsc3)oc3ncnc(Oc4ccc(NC(=O)c5cccn(-c6ccc(F)cc6)c5=O)cc4)c23)c1` [Compound 59], the values for the IC50 on MERTK, in the experiment on MER/AXL and at AXL were 100 to 50000 nM, 100 to 50000 nM and under 20 nM, respectively.

Consider `Cn1cc(-c2oc3ncnc(Oc4ccc(NC(=O)c5cccn(-c6ccc(F)cc6)c5=O)cc4)c3c2-c2cccc(NS(C)(=O)=O)c2)cn1` [Compound 60], for which the figures for the IC50 at MERTK, in the experiment with MER/AXL and at AXL were 20 to 100 nM, 20 to 100 nM and under 20 nM, respectively.

For the molecule `Cn1cc(-c2oc3ncnc(Oc4ccc(NC(=O)c5cc6c(n(-c7ccccc7)c5=O)CCCC6=O)cc4)c3c2-c2cccc(N)c2)cn1` [Compound 61], the IC50 was 20 to 100 nM on MERTK, 20 to 100 nM in the experiment with MER/AXL and under 20 nM at AXL.

As for `CC(=O)Nc1cccc(-c2c(-c3cnn(C)c3)oc3ncnc(Oc4ccc(NC(=O)c5cc6c(n(-c7ccccc7)c5=O)CCCC6=O)cc4)c23)c1` [Compound 62], the figures for the IC50 at MERTK, in the experiment on MER/AXL and at AXL were 100 to 50000 nM, 100 to 50000 nM and under 20 nM, respectively.

On to `CN(C(=O)c1cccn(-c2ccc(F)cc2)c1=O)c1ccc(Oc2ncnc3oc(-c4cnn(C)c4)c(-c4cccc(N(C)S(C)(=O)=O)c4)c23)cc1` [Compound 64], for which the IC50 on MERTK, in the experiment on MER/AXL and at AXL was 100 to 50000 nM throughout.

As to `CN(c1cccc(-c2c(-c3cnn(C)c3)oc3ncnc(Oc4ccc(NC(=O)c5cccn(-c6ccc(F)cc6)c5=O)cc4)c23)c1)S(C)(=O)=O` [Compound 65], the figures for the IC50 on MERTK, in the experiment with MER/AXL and on AXL were 100 to 50000 nM, 100 to 50000 nM and 20 to 100 nM, respectively.

As for `Cn1cc(-c2oc3ncnc(Oc4ccc(NC(=O)c5cccn(C)c5=O)cc4)c3c2-c2cccc(N)c2)cn1` [Compound 66], the IC50 at MERTK, in the experiment on MER/AXL and at AXL was 100 to 50000 nM throughout.
